The source of these data is patent publication US20100035853A1, “METHOD FOR PREVENTING OR TREATING CISPLATIN-INDUCED NEPHROTOXICITY” (HYOGO COLLEGE OF MEDICINE, priority 2008, published 2010).

The target of series [1] is T1, aldosterone receptor (Mus musculus, UniProt Q8VII8).
T1 sequence (Q8VII8 1-978): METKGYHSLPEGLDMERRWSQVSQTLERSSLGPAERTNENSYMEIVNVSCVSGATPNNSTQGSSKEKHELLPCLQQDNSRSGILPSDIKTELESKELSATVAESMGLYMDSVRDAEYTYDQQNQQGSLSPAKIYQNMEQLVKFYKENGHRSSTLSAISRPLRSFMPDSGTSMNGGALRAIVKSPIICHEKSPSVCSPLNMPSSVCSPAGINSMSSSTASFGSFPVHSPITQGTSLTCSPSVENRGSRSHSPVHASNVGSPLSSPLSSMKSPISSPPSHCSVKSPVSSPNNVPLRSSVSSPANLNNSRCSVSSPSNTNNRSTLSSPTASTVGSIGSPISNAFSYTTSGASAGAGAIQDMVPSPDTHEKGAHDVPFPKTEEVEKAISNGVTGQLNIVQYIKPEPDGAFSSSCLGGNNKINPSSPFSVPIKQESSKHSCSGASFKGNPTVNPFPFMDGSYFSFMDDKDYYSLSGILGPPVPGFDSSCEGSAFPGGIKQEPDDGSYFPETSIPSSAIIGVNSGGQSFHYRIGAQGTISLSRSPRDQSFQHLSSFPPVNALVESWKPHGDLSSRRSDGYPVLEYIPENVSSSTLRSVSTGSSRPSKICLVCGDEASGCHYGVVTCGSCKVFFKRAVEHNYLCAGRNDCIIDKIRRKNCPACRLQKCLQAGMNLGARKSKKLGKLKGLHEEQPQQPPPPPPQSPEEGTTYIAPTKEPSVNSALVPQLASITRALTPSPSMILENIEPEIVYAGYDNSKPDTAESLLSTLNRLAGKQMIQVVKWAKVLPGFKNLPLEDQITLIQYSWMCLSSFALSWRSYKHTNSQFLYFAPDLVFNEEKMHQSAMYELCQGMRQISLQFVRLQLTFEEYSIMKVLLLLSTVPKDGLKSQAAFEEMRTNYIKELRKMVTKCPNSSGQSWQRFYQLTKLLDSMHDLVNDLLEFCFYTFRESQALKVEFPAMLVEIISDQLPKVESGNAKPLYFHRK
As for the experimental part:
(§1) Open and closed columns show vehicle- and Eplerenone-treated mice, respectively. […] NS; not significant.
(§2) Blood urea nitrogen (BUN) and creatinine were enzymatically measured by HITACHI 7180 auto-analyzer. Aldosterone level was measured by radioimmuno assay. All of these assays were performed by SRL, Inc (Tokyo, Japan).

In series [2] the target is T1, aldosterone receptor. As to the kind of experiment: Effect of Eplerenone on Cisplatin-induced increase in plasma aldosterone in wild-type mice. The series is classed as in vivo. The arrangement: Wild-type male BALB/c mice (WT mice) aged 9-10 weeks-old were purchased; from tissue; host or cells: whole animal: wild-type male BALB/c mice dosed orally, with read-outs in plasma. As to conditions: Eplerenone 20 mg/kg orally, observation for 3 days, significant at day 1 and later. As for the experimental part: as §1, §2

Series [3] is described as follows: Serum IL-18 and other cytokines after Cisplatin treatment (ELISA). The series is classed as in vivo, mouse. Conditions: wild-type BALB/c mice, Cisplatin 20 mg/kg i.p. As for the experimental part:
Levels of serum IL-18 were measured using the specific ELISA kit.
IL-18 concentrations in serum were measured by ELISA purchased from Medical and Biological Laboratories (Tokyo, Japan) in accordance with the manufactures' instructions. Other cytokines such as TNF-α, IFN-γ, IL-1β, IL-10 and MIP-1α were measured respective ELISA kits purchased from R&D Systems Inc (USA).

The nature of series [4]: Survival of wild-type and IL-18KO mice after Cisplatin. The series is classed as in vivo, mouse. As to conditions: Cisplatin 20 mg/kg i.p.; for dead mice: day 2; for survival rate: day 3. As for the experimental part: Open and closed symbols show wild-type and IL-18KO mice, respectively.
(§3) As a control, mice were treated with a similar volume of saline.

Series [5] can be described thus: Accumulation of Cisplatin in the kidney (platinum ion content of kidney homogenate). Conditions: wild-type vs IL-18KO mice, Cisplatin 20 mg/kg i.p. The class given is in vivo, mouse. As for the experimental part:
Accumulations of Cisplatin in the kidney were measured as platinum ion content in the kidney homogenate. Open and closed columns show wild-type and IL-18KO mice, respectively.

The nature of series [6]: Exogenous recombinant mouse IL-18 in Cisplatin-treated IL-18KO mice: plasma BUN and creatinine. As to conditions: IL-18KO mice supplemented with rmIL-18 (2 μg/body), Cisplatin 20 mg/kg i.p. The class given is in vivo. Here is the method: Plasma levels of BUN and creatinine were measured as shown in Materials and Methods. Open, closed and grey-colored columns show wild-type, IL-18KO and IL-18-supplemented IL-18KO mice, respectively. […] NS; not significant.
as §3, §2

Series [7] can be described thus: Induction of plasma aldosterone by recombinant IL-18 in wild-type mice. The series is classed as in vivo. As for the experimental part:
Wild-type mice were treated with various doses of IL-18 (0.2, 0.6 and 2 mg/mouse), then blood samples were collected at 5 hours after IL-18 treatment. […] NS; not significant.
as §2

Setting [8] is: wild-type mice, Eplerenone 20 mg/kg orally 30 min pre, day 1, day 2, Cisplatin 20 mg/kg i.p.

For the molecule `COC(=O)[C@@H]1CC2=CC(=O)CC[C@]2(C)[C@@]23O[C@@H]2C[C@@]2(C)[C@@H](CC[C@@]24CCC(=O)O4)[C@H]13` [Eplerenone], at aldosterone receptor [1] (day 1 and later after Cisplatin treatment), the “inhibition of increased creatinine level vs vehicle” value is listed as “significant inhibition”. The “inhibition of increased BUN level vs vehicle” value at aldosterone receptor [1] (day 2 and 3 after Cisplatin treatment) is reported as “Significant inhibition”. Moreover, on aldosterone receptor [1] (wild-type mice), the “renal toxicity of Cisplatin (summary statement)” value was “strongly suppressed”. For the same molecule, the “lethality of Cisplatin” value at aldosterone receptor [1] (wild-type mice treated with Eplerenone (data not shown)) is “almost completely suppressed”. On aldosterone receptor [1] (setting [8]), the “elevation of plasma BUN” value is “almost completely suppressed” and the “elevation of plasma creatinine” value is “almost completely suppressed”. The “increase in plasma aldosterone level induced by Cisplatin” value on aldosterone receptor [2] is “completely inhibited”.
In the case of `N.N.[Cl][Pt][Cl]` [Cisplatin], in series [3] (around day 3), the “levels of IL-18 in the circulation” value is “over 1000 pg/ml”. Besides, the “other cytokines (TNF-α, IFN-γ, IL-1β, IL-10, MIP-1α) in serum” value in series [3] (when IL-18 was at maximal levels (data not shown)) is on record as “undetectable”. In series [4] (IL-18KO mice), the dead mice entry is recorded as “no mouse was dead” and the survival rate is 92.9%. Besides, in series [4] (wild-type mice), the dead mice result is “six of fourteen” and the survival rate worked out at 28.6%. The “quantity of platinum ion in the kidney” value in series [5] (day 1) is given as “almost equivalent”. Besides, the “rate of excretion of platinum ion from the kidney” value in series [5] (day 2 and 3) is “much rapid in IL-18KO mice than in wild-type mice”.

B1: rmIL-18: Recombinant mouse IL-18 donated by GlaxoSmithKline Pharmaceuticals (protein, UniProt P70380 36-192, looked up)
Interleukin-18: NFGRLHCTTAVIRNINDQVLFVDKRQPVFEDMTDIDQSASEPQTRLIIYMYKDSEVRGLAVTLSVKDSKMSTLSCKNKIISFEEMDPPENIDDIQSDLIFFQKRVPGHNKMEFESSLYEGHFLACQKEDDAFKLILKKKDENGDKSVMFTLTNLHQS
As to B1, in series [6] (day 1 to 3), the “plasma levels of creatinine induced by Cisplatin” value is “significantly increased”. Moreover, in series [6] (day 3), the “plasma levels of BUN” value was “increased to almost equivalent levels with wild-type mice”. Besides, the “renal toxicity of exogenously given IL-18 alone” value in series [7] (wild-type mice (data not shown)) is reported as “did not cause any renal toxicity”. Besides, in series [7] (wild-type mice, 5 hours after IL-18 treatment), the “dose of IL-18 giving significant induction of plasma aldosterone” value is recorded as “over 0.6 μg”. In series [7] (wild-type mice, various doses of IL-18, 5 hours after treatment), the “plasma levels of aldosterone” value was “augmented the plasma levels of aldosterone in a dose-dependent manner”.
